# Assay results published in publication PMC5943252, “Contrasting roles for actin in the cellular uptake of cell penetrating peptide conjugates” (Scientific Reports, 2018).
# “Also recorded” adds a separate entry of the source.
# What was measured:
# [1] = system: actin architecture in A431 cells; test: Actin cytoskeleton visualisation (Rh-P staining, confocal microscopy); assay type: cell-based; details: for effect on organisation of the actin cytoskeleton: A431 cells, 4 hr, Rh-P staining
# Description: Analysis was performed on a Leica SP5 confocal laser scanning microscope, equipped with laser lines: 405 Blue Diode (Excitation wavelength 405 nm for Hoechst 33342) Argon (Excitation wavelength 488 nm for Alexa 488 or EGFP), Helium Neon Laser 1 (Excitation wavelength 543 nm for Tetramethyl-Rhodamine Phalloidin (Rh-P)) and Laser 2 (Excitation wavelength 633 nm for Alexa 647 conjugates). All images presented in this study were obtained using a HCX PL APO 63x 1.4 NA oil immersion objective with Leica Type F immersion oil. Parameters “Gain” and “Off-set” of the individual photomultiplier tubes were adjusted between experiments in order to obtain optimal image acquisition avoiding saturation. For multi-channel image acquisition, the channels were scanned in a sequential recording mode to avoid spectral cross-talk caused by overlapping excitation and/or emission spectra of fluorophores. Acquisition mode “XYZ” and image resolutions (pixels/image) of 512 × 512 or 1024 × 1024 were selected and pinhole size was set to 1 Airy Unit. Depending on acquisition requirements the scan speed was set as either 400 or 700 Hz and for single section images, the same optical section was scanned 3x to generate a line average image. Captured images were then analysed using ImageJ. In some cases (live cell imaging) the same cells were also imaged using […] microscopy (DIC).
# A recently described method was utilised giving information on actin architecture at different regions of the cells termed basal and cell body and apex (CBA). For actin staining, HeLa (0.5 × 10^6 cells/well) or A431 (1.0 × 10^6 cells/well) cells in 2.5 mL D-MEM containing 10% FBS were seeded on round borosilicate No.1.5 cover slips in 6 –well plates and allowed to adhere for 24 hr at 37 °C/5% CO2, to reach a confluence of ~80%. The cells were then treated with actin disrupters as described above, washed 3x with PBS and fixed for 15 min at room temperature with 3% PFA in PBS. Cells were then washed 3x with PBS and permeabilised with 0.2% Triton X-100 in PBS at room temperature for 5 min, washed 3x with PBS and stained for cell nuclei with 1.0 µg/ml Hoechst 33342 in PBS and for polymerised actin with 1.0 µg/ml Rh-P in PBS for 15 min at room temperature. The cells were finally washed 3x with PBS and once with distilled water, coverslips were mounted in DAKO mounting medium on glass microscope slides and imaged by confocal microscopy.
# macrophages = details: cited from earlier work
# Description: Through interaction with the Rho GTPase, ROCKs play a central role in actin network assembly and membrane association. In A431 cells the effects of Y27632 on the actin cytoskeleton was more subtle than that observed with the agents that directly targeted actin. […] In contrast to results o ...
# A431 cells [2] = test: Flow cytometry of cellular uptake of EGFP-R8 in the presence of actin inhibitors; assay type: cell-based; details: for Normalised Fluoresence Intensity (EGFP-R8): three independent experiments
# Description: (§1) A431 cells were seeded onto 12-well plates and cultured for 24 hr to be ~80% confluent on the day of experiment. Cells were washed twice with PBS and then incubated with diluent control (DMSO/dH2O) or actin inhibitors as previously described. They were then loaded with serum-free DMEM containing either 2 µM EGFP-R8, 5 µg/ml TF-647 or 0.1 mg/ml Dex-647 in the presence or absence of actin inhibitors for times stipulated in the figure legends. The plates were then placed on ice to prevent further uptake and washed 3x with either ice-cold PBS or 0.5 mg/ml heparin in PBS. To remove the plasma membrane bound TF, cells were washed 3x with ice-cold PBS followed by an incubation for 1 min in ice-cold acid wash (0.2 M acetic acid, 0.2 M NaCl, pH 2.0)[33]. All cells were then washed twice with PBS at room temperature before trypsinisation at 37 °C for 5 min before placing the detached cells in centrifuge tubes and centrifuging at 4 °C for 3 min at 800 × g. The obtained cell suspension was washed 3x with ice-cold PBS and finally resuspended in 300 µl ice-cold PBS for measurement of cell-associated fluorescence (cell gate 50,000 cells) by flow cytometry on a BD FACSVerse utilising a 488 laser and 527/32 filter for EGFP analysis and a 633 nm laser and 660/10 filter for Alexa 647. Cells were gated using FSC-A/SSC-A to isolate single cell populations and analysed using FlowJo.
# Flow cytometry measurements represent the mean fluorescence from three independent experiments performed in duplicate, where each individual data point was the geometric mean. A two-tailed unpaired Students t-test was used to test for differences within experiments. Significant differences were classed as having a P value of < 0.05.
# HeLa = details: cited from earlier work
# Description: (§2) Cyt D binds to the fast-growing ends of actin nuclei and filaments, preventing addition of monomeric actin to these sites. […] Here we further explored these contradictory effects by also performing uptake studies with recomb ...
# A431 = details: cited from earlier work
# Description: as §2
# HeLa cells = test: Live cell confocal microscopy of uptake of endocytic probes and R8 conjugates, with or without Cyt D; assay type: cell-based; details: 10 µM Cyt D, 15 min preincubation
# Description: HeLa or A431 cells were seeded on 35 mm MatTek dishes (Ashland, US) at respective densities of 5 × 10^5 cells/dish and 1.0 × 10^6 cells/dish and maintained in 2.5 mL D-MEM containing 10%, 100 IU/mL penicillin and 100 µg/mL streptomycin. Cells were then allowed to adhere for 24 hr at 37 °C/5% CO2 to reach a confluence of ~80%. On the day of experimentation, they were washed with PBS and then incubated with 100 µl serum-free D-MEM (thus reducing well described serum binding effects[32]) containing either 2 µM CPP conjugate (R8-Alexa488 or EGFP-R8), 5 µg/ml transferrin-Alexa 647 (TF-647) or 0.1 mg/ml dextran (10 kDa)-Alexa 647 (Dex-647). The cells were then incubated for 1 hr (or 30 min for TF-647) at 37 °C/5% CO2 before washing 3x with PBS (TF-647 or Dex-647) or PBS 0.5 mg/mL heparin (R8-conjugates). […]
# Cells were seeded on MatTek dishes as previously described and were washed with PBS before preincubation at 37 °C with diluent control (DMSO) or actin inhibitors: 10 µM Cyt D for 15 min; 0.1–1 µM Lat B for 30 min; 0.2–4 µM JAS for 45 min; 50–100 µM Y27632 for 4 hr in serum-free D-MEM at 37 °C/5% CO2. […] EGFP-R8 (2 µM) was then added for 1 hr in the absence or presence of 10 µM Cyt D. EGFP-R8 and Dex-647 subcellular distribution was then analysed in live cells using confocal microscopy. […]
# A431 cells [3] = test: Flow cytometry of transferrin-Alexa647 uptake with acid wash; assay type: cell-based; details: 10 µM Cyt D, 15 min preincubation, then 5 µg/ml TF-647 for 30 min with Cyt D, acid washing of surface label, three separate experiments
# Description: as §1, with “All cells were then washed twice with PBS at room temperature before trypsinisation at 37 °C for 5 min before placing the detached cells in centrifuge tubes and centrifuging at 4 °C for 3 min at 800 × g.” left out
# Flow cytometry measurements represent the mean fluorescence from three independent experiments performed in duplicate, where each individual data point was the geometric mean. […]
# A431 cells [4] = test: Live cell confocal microscopy of uptake of endocytic probes and R8 conjugates, with or without actin inhibitors; assay type: cell-based; details: 10 µM Cyt D, 15 min preincubation
# Description: HeLa or A431 cells were seeded on 35 mm MatTek dishes (Ashland, US) at respective densities of 5 × 10^5 cells/dish and 1.0 × 10^6 cells/dish and maintained in 2.5 mL D-MEM containing 10%, 100 IU/mL penicillin and 100 µg/mL streptomycin. Cells were then allowed to adhere for 24 hr at 37 °C/5% CO2 to reach a confluence of ~80%. On the day of experimentation, they were washed with PBS and then incubated with 100 µl serum-free D-MEM (thus reducing well described serum binding effects[32]) containing either 2 µM CPP conjugate (R8-Alexa488 or EGFP-R8), 5 µg/ml transferrin-Alexa 647 (TF-647) or 0.1 mg/ml dextran (10 kDa)-Alexa 647 (Dex-647). The cells were then incubated for 1 hr (or 30 min for TF-647) at 37 °C/5% CO2 before washing 3x with PBS (TF-647 or Dex-647) or PBS 0.5 mg/mL heparin (R8-conjugates). They were then washed once with PBS, prior to the addition of 2 mL of imaging medium (phenol red free RPMI, 20 mM HEPES pH 7.4) and analysis by live cell confocal microscopy.
# Cells were seeded on MatTek dishes as previously described and were washed with PBS before preincubation at 37 °C with diluent control (DMSO) or actin inhibitors: 10 µM Cyt D for 15 min; 0.1–1 µM Lat B for 30 min; 0.2–4 µM JAS for 45 min; 50–100 µM Y27632 for 4 hr in serum-free D-MEM at 37 °C/5% CO2. Endocytic probes (TF-647, Dex-647) or R8-conjugates were then incubated with the cells in the absence (control) or presence of the inhibitors and further incubated at 37 °C/5% CO2 for times specified in figure legends prior to analysis by confocal microscopy. For pulse chase experiments, A431 cells were incubated with 0.1 mg/ml Dex-647 for 2 hr (pulse) followed by washing and a further 4 hr (chase) in fresh complete growth medium. EGFP-R8 (2 µM) was then added for 1 hr in the absence or presence of 10 µM Cyt D. EGFP-R8 and Dex-647 subcellular distribution was then analysed in live cells using confocal microscopy. For low temperature experiments, cells were preincubated with Cyt D as above and then placed on ice for 2 min prior to addition of ice cold EGFP-R8. The cells were then maintained under these conditions for 1 hr prior to analysis by confocal microscopy.
# Analysis was performed on a Leica SP5 confocal laser scanning microscope, equipped with laser lines: 405 Blue Diode (Excitation wavelength 405 nm for Hoechst 33342) Argon (Excitation wavelength 488 nm for Alexa 488 or EGFP), Helium Neon Laser 1 (Excitation wavelength 543 nm for Tetramethyl-Rhodamine Phalloidin (Rh-P)) and Laser 2 (Excitation wavelength 633 nm for Alexa 647 conjugates). All images presented in this study were obtained using a HCX PL APO 63x 1.4 NA oil immersion objective with Leica Type F immersion oil. Parameters “Gain” and “Off-set” of the individual photomultiplier tubes were adjusted between experiments in order to obtain optimal image acquisition avoiding saturation. For multi-channel image acquisition, the channels were scanned in a sequential recording mode to avoid spectral cross-talk caused by overlapping excitation and/or emission spectra of fluorophores. Acquisition mode “XYZ” and image resolutions (pixels/image) of 512 × 512 or 1024 × 1024 were selected and pinhole size was set to 1 Airy Unit. Depending on acquisition requirements the scan speed was set as either 400 or 700 Hz and for single section images, the same optical section was scanned 3x to generate a line average image. Captured images were then analysed using ImageJ. […]
SMILES,effect on organisation of the actin cytoskeleton ([1]; Y27632 1 and 10 μM (up to 10 μM)),"effect on organisation of the actin cytoskeleton ([1]; Y27632 at higher concentrations (50, 100 μM))",inhibition of uptake of 70 KDa dextran (macrophages),"inhibition of cell uptake of EGFP-R8 (A431 cells [2]; 100 µM Y27632, 4 hr preincubation, then 2 µM EGFP-R8 for 1 hr with Y27632, P = 0.02)","Normalised Fluoresence Intensity (EGFP-R8) (A431 cells [2]; 100 µM Y27632, 4 hr preincubation, then 2 µM EGFP-R8 for 1 hr with Y27632, mean of geometric means)",effect on uptake of dextran (HeLa; HeLa cells),"effect on uptake of Alexa488-CPPs R8 and Tat (HeLa; HeLa, flow cytometry)","effect on uptake of Alexa488-CPPs R8 and Tat (A431; A431, flow cytometry)",effect on uptake of dextran (A431; A431 cells),"effect on internalisation of R8-Alexa 488 (HeLa cells; then 2 µM R8-Alexa 488 for 1 hr with Cyt D, heparin wash)","effect on cell associated transferrin fluorescence (HeLa cells; then 5 µg/ml TF-647 for 30 min with Cyt D, vs control)",effect on actin organisation ([1]; Cyt D at concentrations >5 µM),effect on fluorescence uptake of transferrin (A431 cells [3]),"effect on internalisation of EGFP-R8 (A431 cells [4]; then 2 µM EGFP-R8 for 1 hr with Cyt D, heparin wash)","effect on uptake of R8-Alexa488 (A431 cells [4]; then 2 µM R8-Alexa488 for 1 hr with Cyt D, heparin wash)",effect on uptake of dextran-Alexa647 (A431 cells [4]; then 0.1 mg/ml 10 kDa Dex-647 for 1 hr with Cyt D),"Normalised Fluoresence Intensity (EGFP-R8) (A431 cells [2]; 10 µM Cyt D, 15 min preincubation, then 2 µM EGFP-R8 for 1 hr with Cyt D, geometric means, normalised to diluent control)","fold increase in intracellular fluorescence (EGFP-R8 uptake) (A431 cells [2]; 10 µM Cyt D, 15 min preincubation, then 2 µM EGFP-R8 for 1 hr with Cyt D, serum-free D-MEM, 37 °C, washed, trypsinised, vs diluent control, P = 0.0036, three independent experiments) [fold]"
"C[C@@H](N)[C@H]1CC[C@H](C(=O)Nc2ccncc2)CC1.Cl.Cl (relative stereo) [Y27632, (+)-(R)-trans-4-(1-aminoethyl)-N-(4-pyridyl) cyclohexanecarboxamide dihydrochloride]",no visible changes in the organisation of the actin cytoskeleton,extensive actin deformities,~ 50%,~ 20%,0.77,–,–,–,–,–,–,–,–,–,–,–,–,–
"C=C1[C@@H](C)[C@H]2[C@H](Cc3ccccc3)NC(=O)[C@]23[C@H](OC(C)=O)/C=C/[C@@](C)(O)C(=O)[C@@H](C)C/C=C/[C@H]3[C@@H]1O [Cyt D, cytochalasin D]",–,–,–,–,–,no effect,inhibited,inhibited,increased uptake,inhibited; also recorded: reduction in uptake,not markedly different,completely destroys actin organisation,no difference in fluorescence uptake,dramatically enhanced,less of a noticeable reduction in uptake; also recorded: inhibition,dramatically increased,4.55,4.5
